What is called IC50 is the midpoint of a concentration-inhibition curve.

One experiment deals with HeLa cell line.
Assay: not given
To be noted: compared to the control drug ellipticine; Tunbridge et al., 2013; cited from earlier work.
As for `COc1cc2c(c(N)c1OC)C(=O)/C(=C\c1cc(C)c(O)c(C)c1)C2` [indanocine], the “inhibitory activity against the HeLa cell line” value is listed as “superior inhibitory activity”.

Test system in a further experiment: not listed separately
The experiment can be described thus: Cell-based pharmacodynamic assay (CellTiter-Glo proliferation inhibition), tumor cell line panel. The settings on record: Homo sapiens; one range stated for all 22 listed ovarian, liver, lung, melanoma, pancreatic, colorectal, renal, prostate, gastric, tongue, leukemia and rhabdomyosarcoma cell lines. The method, then: Complete media such as RPMI 1640 (Gibco, A1049101), EMEM (ATCC, 30-2003), DMEM (Gibco, C11995500CP), McCoy's 5A (Gibco, 16600082), and F-12K (ATCC, 30-2004) were prepared by supplementing with varying concentrations of FBS (Biological Industries, 04-002-1A) and 1% Penicillin-Streptomycin (Gibco, 15140122) and was thoroughly mixed. Tumor cell lines including HeLa (ATCC, CCL-2; EMEM + 10% FBS), TOV-21G (Cobioer, CBP60292; 1:1 mixture of MCDB 105 and Medium 199 + 15% FBS), OVCAR-3 (ATCC, HTB-161; RPMI 1640 + 20% FBS + 0.01 mg/ml bovine insulin), SK-OV-3 (ATCC, HTB-77; McCoy's 5A + 10% FBS), A2780 (Cobioer, CBP60283; RPMI 1640 + 10% FBS), OC316 (Cobioer, CBP60620; RPMI 1640 + 10% FBS), HuH-7 (Cobioer, CBP60202; DMEM + 10% FBS), SNU-398 (ATCC, CRL-2233; RPMI 1640 + 10% FBS), NCI-H2286 (ATCC, CRL-5938; RPMI 1640 + 5% FBS), NCI-H82 (ATCC, HTB-175; RPMI 1640 + 10% FBS), A549 (ATCC, CCL-185; F-12K + 10% FBS), SK-MEL-3 (ATCC, HTB-69; McCoy's 5A + 15% FBS), PSN-1 (Cobioer, CBP61215; RPMI 1640 + 10% FBS), LoVo (ATCC, CCL-229; F-12K + 10% FBS), DLD-1 (ATCC, CCL-221; RPMI 1640 + 10% FBS), HCT-15 (ATCC, CCL-225; RPMI 1640 + 10% FBS), A498 (ATCC, HTB-44; EMEM + 10% FBS), LNCaP (ATCC, CRL-1740; RPMI 1640 + 10% FBS), SNU-1 (ATCC, CRL-5971; RPMI 1640 + 10% FBS), SCC-9 (Cobioer, CBP60428; DMEM/F12 (1:1) + 10% FBS + 0.5 mM sodium pyruvate + 400 ng/ml hydrocortisone), SU-DHL-5 (ATCC, CRL-2958; RPMI 1640 + 10% FBS), Toledo (ATCC, CRL-2631; RPMI 1640 + 10% FBS), and SJCRH30 (ATCC, CRL-2061; RPMI 1640 + 10% FBS) were thawed. Cells were passaged approximately twice, and those in good growth condition (typically passages 4-6) were selected for experiments. The medium was aspirated, and the cells were washed once with 0.25% trypsin (Invitrogen, 25200-072). The waste liquid was discarded, and 3 mL of fresh trypsin was added to the culture flask for digestion. […] The plates were placed in an Enspire reader (luminescence measurement time: 0.5 s) to record luminescence results. […]
On the technique in general: Cellular ATP, detected with luciferase, serves as a proxy for viable cell number.
In turn, `Cn1ncc(-c2cccc3[nH]c4c(c23)CCCC4=O)n1` [Compound B67] returned an IC50 of 200 to 10000 nM. `CCOC(=O)c1cccc2[nH]c3c(c12)CCCC3=O` [Compound B16] gave an IC50 of 200 to 10000 nM.

The compound `CCCCCC(=O)n1c2c(c3c(C(=O)OCC)cccc31)CCCC2=O` [Compound C05] registered an IC50 of 200 to 10000 nM.

A further experiment deals with HeLa cells. The experiment can be described thus: Cell-based pharmacodynamic assay (CellTiter-Glo proliferation inhibition), HeLa. The settings on record: human cervical cancer HeLa cells; 72 hours incubation; CellTiter-Glo luminescence; read-out: IC50 against HeLa cells. The method, boiled down: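 Cells seeded overnight in line-specific media with FBS, then dosed from DMSO stocks (20 mM stock) for 72 h at 37 °C, 5% CO2. Viability by CellTiter-Glo luminescence; inhibition normalised to DMSO and blank wells, IC50 from four-parameter fit.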
On to `Cn1ncc(-c2cccc3[nH]c4c(c23)CCCC4=O)n1` [Compound B67], for which the IC50 is at most 200 nM. As to `CCOC(=O)c1cccc2[nH]c3c(c12)CCCC3=O` [Compound B16], the half-inhibitory concentration (IC50) is at most 200 nM. As to `CCCCCC(=O)n1c2c(c3c(C(=O)OCC)cccc31)CCCC2=O` [Compound C05], the IC50 was at most 200 nM. With `COCCN=C1CCCc2c1[nH]c1ccc(C)cc21` [Compound E45], the IC50 is at most 200 nM. Same read-out and setting: the value for `CCOC(=O)c1cccc2c1c1c(n2C(=O)C2(C)CCOCC2)C(=O)CCC1` [Compound C45] was at most 200 nM; that for `CSCCC(N=C1CCCc2c1[nH]c1ccc(C)cc21)C(=O)OC(C)(C)C` (stereo not drawn) [Compound E71] was at most 200 nM. Take `CCOC(=O)c1cccc2c1c1c(n2C(=O)CCCCC(F)F)C(=O)CCC1` [Compound C51]: the IC50 is at most 200 nM. `Cc1ccc2[nH]c3c(c2c1)CCCC3=NC(CC(=O)OC(C)(C)C)C(=O)OC(C)(C)C` (stereo not drawn) [Compound E55]: the IC50 was at most 200 nM. Same read-out and setting: the value for `Cc1ccc2[nH]c3c(c2c1)CCCC3=NCC1(C)NC(=O)NC1=O` (stereo not drawn) [Compound E07] was at most 200 nM; that for `Cn1nc2ccccc2c1COC(=O)c1cccc2[nH]c3c(c12)CCCC3=O` [Compound B164] was at most 200 nM; that for `C#Cc1ccc(COC(=O)c2cccc3[nH]c4c(c23)CCCC4=O)s1` [Compound B120] was at most 200 nM. Same read-out and setting: as for `COC(=O)c1cccc2[nH]c3c(c12)CCCC3=NC(C)C(F)(F)F` (stereo not drawn) [Compound E69], the figure is at most 200 nM. As for `[2H]C([2H])([2H])c1ccc2[nH]c3c(c2c1)CCCC3=NCC(=O)OC(C)(C)C` [Compound E32], the IC50 was at most 200 nM. Same read-out and setting: the value for `COC(=O)c1cccc2[nH]c3c(c12)CCCC3=NCC(=O)OC(C)(C)C` [Compound E29] was at most 200 nM. Same read-out and setting: as for `CCN=C1CCCc2c1[nH]c1cccc(C(=O)OC)c21` [Compound E48], the figure is at most 200 nM. Still for that read-out and setting: as for `CCOC(=O)c1cccc2c1c1c(n2C(=O)C2CCOC(C)(C)C2)C(=O)CCC1` (racemic) [Compound C37], the figure is at most 200 nM; as for `CCOC(=O)c1cccc2c1c1c(n2C(=O)c2ccccc2O)C(=O)CCC1` [Compound C31], at most 200 nM; as for `Cc1ccc2[nH]c3c(c2c1)CCCC3=NC(CO)CO` [Compound E14], at most 200 nM. On to `O=C1CCCc2c1[nH]c1cccc(C(=O)OC3CCNC3)c21` (racemic) [Compound B27], for which the concentration for half-maximal inhibition (IC50) was at most 500 nM. On to `CCOC(=O)c1cccc2[nH]c3c(c12)SCCC3=O` [Compound B107], for which the half-inhibitory concentration (IC50) was at most 200 nM. Regarding `O=C1CCCc2c1[nH]c1cccc(C(=O)OC3CCC(O)CC3)c21` (stereo not drawn) [Compound B130], the half-maximal inhibitory concentration (IC50) is at most 200 nM. Consider `CCCCCN=C1CCCc2c1[nH]c1ccc(C)cc21` [Compound E57], for which the IC50 is at most 200 nM. `CCC#Cc1cccc2[nH]c3c(c12)CCCC3=O` [Compound B126]: the IC50 is at most 200 nM.

As to `CCn1ncc(-c2cccc3[nH]c4c(c23)CCCC4=O)n1` [Compound B123], the IC50 is at most 200 nM. Same read-out and setting: the value for `CC(C)C(=O)Oc1cccc2[nH]c3c(c12)CCCC3=O` [Compound B33] was at most 200 nM.

For the compound `Cc1ccc2[nH]c3c(c2c1)CCCC3=NC1CCN(S(=O)(=O)C(C)C)CC1C` (stereo not drawn) [Compound E66], the half-inhibitory concentration (IC50) was at most 200 nM.

As for `C=CC(=O)n1c2c(c3c(C(=O)OCC)cccc31)CCCC2=O` [Compound C03], the half-inhibitory concentration (IC50) is at most 200 nM. As for `CCOC(=O)c1cccc2c1c1c(n2C(=O)CCCCCN)C(=O)CCC1` [Compound C42], the IC50 was at most 200 nM. The same measure, in the same setting: as for `O=C1CCCc2c1[nH]c1cccc(C(=O)OC3CCC3)c21` [Compound B95], the figure is at most 200 nM; as for `CC(C)(O)C1CN(c2cccc3[nH]c4c(c23)CCCC4=O)C1` [Compound B24], at most 200 nM; as for `COC(=O)c1c(F)ccc2[nH]c3c(c12)CCCC3=O` [Compound B85], at most 200 nM. Turning to `CCC#CC(C)OC(=O)c1cccc2[nH]c3c(c12)CCCC3=O` (racemic) [Compound B110], the concentration for half-maximal inhibition (IC50) was at most 200 nM. As for `COc1ccc(Cn2nnc(-c3cccc4[nH]c5c(c34)CCCC5=O)n2)cc1` [Compound B94], the IC50 was at most 500 nM. On to `COC(=O)c1ccc2[nH]c3c(c2c1)CCCC3=NCCO` [Compound E36], for which the IC50 is at most 200 nM.

For the compound `CC(C)n1ncc(-c2cccc3[nH]c4c(c23)CCCC4=O)n1` [Compound B124], the IC50 was at most 200 nM.

These data come from patent EP4711356A1, “TETRAHYDROCARBAZOLE DERIVATIVE, PHARMACEUTICAL COMPOSITION, AND USE THEREOF” (Nain Biotech (Hangzhou) Co., Ltd., priority 2023, dated 2024).
